Usually EC50 stands for the concentration needed to bring the measured effect to its halfway point.

From US12723063B2, “GIPR-agonist compounds” (Eli Lilly and Company, priority 2019, dated 2026) come the findings set out here.

*1 amine or outer side, *2 acyl side, *3 side chain or, on linkers, in order; H or OH if unused. Where a SMILES comes first, the peptide text is derived from it. Side-chain parts run from the residue outwards. [ ]: non-standard residue; d: D form. The star is where a group is joined. C20 diacid = O=C(O)CCCCCCCCCCCCCCCCCCC(=O)*; αMePhe(2-F) = C[C@](N)(Cc1ccccc1F)C(=O)O; γGlu = O=C(O)[C@H](CCC(=O)[*:2])N[*:1]; αMeF = C[C@](N)(Cc1ccccc1)C(=O)O; 4Pal = N[C@@H](Cc1ccncc1)C(=O)O; αMeL = CC(C)C[C@](C)(N)C(=O)O; AEEA = NCCOCCOCC(=O)O; Aib = CC(C)(N)C(=O)O

The target of experiment [1] is T1, human GLP-1 receptor (GLP-1R) (Homo sapiens, UniProt P43220).
T1 construct: expressed in transfected cells; host or cells: HEK293
The experiment is described as follows: cAMP functional assay (HTRF) in HEK293 cells in presence of 0.1% casein. Type of experiment: cell-based. The note with it: HEK293 cells expressing human GLP-1R, geometric mean, read-out: hGLP1R cAMP Rel EC50 nM (SEM, n).

For experiment [2], the target named is T2, human glucose-dependent insulinotropic peptide receptor (GIPR) (Homo sapiens, UniProt P48546).
T2 construct: expressed in transfected cells; host or cells: HEK293
T2 sequence (P48546 22-466): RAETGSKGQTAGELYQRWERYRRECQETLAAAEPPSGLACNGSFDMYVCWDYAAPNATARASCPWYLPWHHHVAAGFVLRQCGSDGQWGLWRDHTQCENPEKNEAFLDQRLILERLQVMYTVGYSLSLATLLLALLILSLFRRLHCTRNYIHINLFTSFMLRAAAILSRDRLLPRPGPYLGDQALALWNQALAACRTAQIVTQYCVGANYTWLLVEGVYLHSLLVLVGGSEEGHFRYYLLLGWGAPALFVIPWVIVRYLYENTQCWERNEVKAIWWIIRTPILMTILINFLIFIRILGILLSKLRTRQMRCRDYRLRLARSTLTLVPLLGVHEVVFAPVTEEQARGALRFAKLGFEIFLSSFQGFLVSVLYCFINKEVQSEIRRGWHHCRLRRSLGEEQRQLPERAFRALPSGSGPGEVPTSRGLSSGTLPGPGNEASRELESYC
The description is as above. The note with it: HEK293 cells expressing human GIPR, geometric mean, read-out: hGIPR cAMP Rel EC50 nM (SEM, n). Type of experiment: cell-based.

T1 sequence (P43220 24-463): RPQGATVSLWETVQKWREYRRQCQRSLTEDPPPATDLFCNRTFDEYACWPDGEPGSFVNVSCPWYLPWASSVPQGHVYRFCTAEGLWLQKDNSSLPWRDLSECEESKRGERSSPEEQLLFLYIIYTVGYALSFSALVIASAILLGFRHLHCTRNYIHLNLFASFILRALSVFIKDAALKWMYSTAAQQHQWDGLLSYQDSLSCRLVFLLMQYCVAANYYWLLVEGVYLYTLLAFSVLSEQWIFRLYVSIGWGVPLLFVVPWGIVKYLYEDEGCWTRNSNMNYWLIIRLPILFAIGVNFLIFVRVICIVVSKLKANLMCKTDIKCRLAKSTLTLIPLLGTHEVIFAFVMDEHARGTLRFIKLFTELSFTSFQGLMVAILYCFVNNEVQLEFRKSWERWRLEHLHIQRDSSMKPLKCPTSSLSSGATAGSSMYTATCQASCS

On to `CC[C@H](C)[C@H](NC(=O)[C@H](CO)NC(=O)[C@H](Cc1ccc(O)cc1)NC(=O)[C@H](CC(=O)O)NC(=O)[C@H](CO)NC(=O)[C@@H](NC(=O)[C@](C)(Cc1ccccc1)NC(=O)[C@@H](NC(=O)CNC(=O)[C@H](CCC(=O)O)NC(=O)C(C)(C)NC(=O)[C@@H](N)Cc1ccc(O)cc1)[C@@H](C)O)[C@@H](C)CC)C(=O)N[C@@](C)(CC(C)C)C(=O)N[C@@H](CC(C)C)C(=O)N[C@@H](CC(=O)O)C(=O)N[C@@H](CCCCN)C(=O)N[C@@H](CCCCNC(=O)COCCOCCNC(=O)COCCOCCNC(=O)CC[C@H](NC(=O)CCCCCCCCCCCCCCCCCCC(=O)O)C(=O)O)C(=O)N[C@@H](Cc1c[nH]cn1)C(=O)N[C@@H](CCC(N)=O)C(=O)NC(C)(C)C(=O)N[C@@H](CC(=O)O)C(=O)N[C@@H](Cc1ccccc1)C(=O)N[C@H](C(=O)N[C@@H](CCC(=O)O)C(=O)N[C@@H](Cc1ccncc1)C(=O)N[C@@H](CC(C)C)C(=O)N[C@@H](CC(C)C)C(=O)N[C@@H](C)C(=O)NCC(=O)NCC(=O)N1CCC[C@H]1C(=O)N[C@@H](CO)C(=O)N[C@@H](CO)C(=O)NCC(=O)N[C@@H](C)C(=O)N1CCC[C@H]1C(=O)N1CCC[C@H]1C(=O)N1CCC[C@H]1C(=O)N[C@@H](CO)C(N)=O)C(C)C` [Example 50] (H-Y[Aib]EGT[αMeF]ISDYSI[αMeL]LDKK([AEEA-AEEA-γGlu-C20 diacid])HQ[Aib]DFVE[4Pal]LLAGGPSSGAPPPS-NH2), for which the figures for the EC50 in experiment [1] and in experiment [2] were 41 nM and 0.0212 nM, respectively.

Consider `CC[C@H](C)[C@H](NC(=O)[C@H](CO)NC(=O)[C@H](Cc1ccc(O)cc1)NC(=O)[C@H](CC(=O)O)NC(=O)[C@H](CO)NC(=O)[C@@H](NC(=O)[C@](C)(Cc1ccccc1F)NC(=O)[C@@H](NC(=O)CNC(=O)[C@H](CCC(=O)O)NC(=O)C(C)(C)NC(=O)[C@@H](N)Cc1ccc(O)cc1)[C@@H](C)O)[C@@H](C)CC)C(=O)N[C@@](C)(CC(C)C)C(=O)N[C@@H](CC(C)C)C(=O)N[C@@H](CC(=O)O)C(=O)N[C@@H](CCCCN)C(=O)N[C@@H](CCCCNC(=O)COCCOCCNC(=O)COCCOCCNC(=O)CC[C@H](NC(=O)CCCCCCCCCCCCCCCCCCC(=O)O)C(=O)O)C(=O)N[C@@H](Cc1c[nH]cn1)C(=O)N[C@@H](CCC(N)=O)C(=O)NC(C)(C)C(=O)N[C@@H](CC(=O)O)C(=O)N[C@@H](Cc1ccccc1)C(=O)N[C@H](C(=O)N[C@@H](CCC(=O)O)C(=O)N[C@@H](Cc1ccncc1)C(=O)N[C@@H](CC(C)C)C(=O)N[C@@H](CC(C)C)C(=O)N[C@@H](C)C(=O)NCC(=O)NCC(=O)N1CCC[C@H]1C(=O)N[C@@H](CO)C(=O)N[C@@H](CO)C(=O)NCC(=O)N[C@@H](C)C(=O)N1CCC[C@H]1C(=O)N1CCC[C@H]1C(=O)N1CCC[C@H]1C(=O)N[C@@H](CO)C(N)=O)C(C)C` [Example 51] (H-Y[Aib]EGT[αMePhe(2-F)]ISDYSI[αMeL]LDKK([AEEA-AEEA-γGlu-C20 diacid])HQ[Aib]DFVE[4Pal]LLAGGPSSGAPPPS-NH2), for which the EC50 was determined as 24.7 nM in experiment [1] and 0.0166 nM in experiment [2].

For `CC[C@H](C)[C@H](NC(=O)[C@H](Cc1ccccc1)NC(=O)[C@@H](NC(=O)CNC(=O)[C@H](CCC(=O)O)NC(=O)C(C)(C)NC(=O)[C@@H](N)Cc1ccc(O)cc1)[C@@H](C)O)C(=O)N[C@@H](CO)C(=O)N[C@@H](CC(=O)O)C(=O)N[C@@H](Cc1ccc(O)cc1)C(=O)N[C@@H](CO)C(=O)N[C@H](C(=O)N[C@@](C)(CC(C)C)C(=O)N[C@@H](CC(C)C)C(=O)N[C@@H](CC(=O)O)C(=O)N[C@@H](CCCCN)C(=O)N[C@@H](CCCCNC(=O)COCCOCCNC(=O)COCCOCCNC(=O)CC[C@H](NC(=O)CCCCCCCCCCCCCCCCCCC(=O)O)C(=O)O)C(=O)N[C@@H](Cc1c[nH]cn1)C(=O)N[C@@H](CCC(N)=O)C(=O)NC(C)(C)C(=O)N[C@@H](CCC(=O)O)C(=O)N[C@@H](Cc1ccccc1)C(=O)N[C@H](C(=O)N[C@@H](CCC(=O)O)C(=O)N[C@@H](Cc1ccncc1)C(=O)N[C@@H](CC(C)C)C(=O)N[C@@H](CC(C)C)C(=O)N[C@@H](C)C(=O)NCC(=O)NCC(=O)N1CCC[C@H]1C(=O)N[C@@H](CO)C(=O)N[C@@H](CO)C(=O)NCC(=O)N[C@@H](C)C(=O)N1CCC[C@H]1C(=O)N1CCC[C@H]1C(=O)N1CCC[C@H]1C(=O)N[C@@H](CO)C(N)=O)C(C)C)[C@@H](C)CC` [Example 52], the EC50 in experiment [1] was more than 5000 nM; in experiment [2], 0.0194 nM.

With `CC[C@H](C)[C@H](NC(=O)[C@H](Cc1ccccc1)NC(=O)[C@@H](NC(=O)CNC(=O)[C@H](CCC(=O)O)NC(=O)C(C)(C)NC(=O)[C@@H](N)Cc1ccc(O)cc1)[C@@H](C)O)C(=O)N[C@@H](CO)C(=O)N[C@@H](CC(=O)O)C(=O)N[C@@H](Cc1ccc(O)cc1)C(=O)N[C@@H](CO)C(=O)N[C@H](C(=O)N[C@@](C)(CC(C)C)C(=O)N[C@@H](CC(C)C)C(=O)N[C@@H](CC(=O)O)C(=O)N[C@@H](CCCCN)C(=O)N[C@@H](CCCCNC(=O)COCCOCCNC(=O)COCCOCCNC(=O)CC[C@H](NC(=O)CCCCCCCCCCCCCCCCCCC(=O)O)C(=O)O)C(=O)N[C@@H](Cc1c[nH]cn1)C(=O)N[C@@H](CCC(N)=O)C(=O)NC(C)(C)C(=O)N[C@@H](CC(=O)O)C(=O)N[C@@H](Cc1ccccc1)C(=O)N[C@H](C(=O)N[C@@H](CCC(=O)O)C(=O)N[C@@H](Cc1ccc(O)cc1)C(=O)N[C@@H](CC(C)C)C(=O)N[C@@H](CC(C)C)C(=O)N[C@@H](C)C(=O)NCC(=O)NCC(=O)N1CCC[C@H]1C(=O)N[C@@H](CO)C(=O)N[C@@H](CO)C(=O)NCC(=O)N[C@@H](C)C(=O)N1CCC[C@H]1C(=O)N1CCC[C@H]1C(=O)N1CCC[C@H]1C(=O)N[C@@H](CO)C(N)=O)C(C)C)[C@@H](C)CC` [Example 53] (H-Y[Aib]EGTFISDYSI[αMeL]LDKK([AEEA-AEEA-γGlu-C20 diacid])HQ[Aib]DFVEYLLAGGPSSGAPPPS-NH2), the values for the EC50 in experiment [1] and in experiment [2] were more than 5000 nM and 0.0194 nM, respectively.

As for `CC[C@H](C)[C@H](NC(=O)[C@H](Cc1ccccc1)NC(=O)[C@@H](NC(=O)CNC(=O)[C@H](CCC(=O)O)NC(=O)C(C)(C)NC(=O)[C@@H](N)Cc1ccc(O)cc1)[C@@H](C)O)C(=O)N[C@@H](CO)C(=O)N[C@@H](CC(=O)O)C(=O)N[C@@H](Cc1ccc(O)cc1)C(=O)N[C@@H](CO)C(=O)N[C@H](C(=O)N[C@@](C)(CC(C)C)C(=O)N[C@@H](CC(C)C)C(=O)N[C@@H](CC(=O)O)C(=O)N[C@@H](CCCCN)C(=O)N[C@@H](CCCCNC(=O)COCCOCCNC(=O)COCCOCCNC(=O)CC[C@H](NC(=O)CCCCCCCCCCCCCCCCCCC(=O)O)C(=O)O)C(=O)N[C@@H](Cc1c[nH]cn1)C(=O)N[C@@H](CCC(N)=O)C(=O)NC(C)(C)C(=O)N[C@@H](CC(=O)O)C(=O)N[C@@H](Cc1ccccc1)C(=O)N[C@H](C(=O)N[C@@H](CCC(=O)O)C(=O)N[C@@H](Cc1c[nH]c2ccccc12)C(=O)N[C@@H](CC(C)C)C(=O)N[C@@H](CC(C)C)C(=O)N[C@@H](C)C(=O)NCC(=O)NCC(=O)N1CCC[C@H]1C(=O)N[C@@H](CO)C(=O)N[C@@H](CO)C(=O)NCC(=O)N[C@@H](C)C(=O)N1CCC[C@H]1C(=O)N1CCC[C@H]1C(=O)N1CCC[C@H]1C(=O)N[C@@H](CO)C(N)=O)C(C)C)[C@@H](C)CC` [Example 54] (H-Y[Aib]EGTFISDYSI[αMeL]LDKK([AEEA-AEEA-γGlu-C20 diacid])HQ[Aib]DFVEWLLAGGPSSGAPPPS-NH2), the EC50 in experiment [1] is more than 5000 nM; in experiment [2] it was 0.054 nM.
